Test results from article PMC6067878, “Lipoate-binding proteins and specific lipoate-protein ligases in microbial sulfur oxidation reveal an atpyical role for an old cofactor” (eLife, 2018).

Experiments:
[1] = biological target: T1, TkLbpA1 (lipoate-binding protein LbpA1, TK90_0638) (Thioalkalivibrio sp. K90mix, UniProt D3SF86); assay: MALDI mass spectrometry of enzymatic lipoylation; conditions: covalent; lipoyl group attached to apo-protein by TkLplA with ATP, 37 °C
T1 construct: Strep- or His-tagged (pET22b), made in E. coli as apoprotein
T1 sequence (D3SF86 1-148): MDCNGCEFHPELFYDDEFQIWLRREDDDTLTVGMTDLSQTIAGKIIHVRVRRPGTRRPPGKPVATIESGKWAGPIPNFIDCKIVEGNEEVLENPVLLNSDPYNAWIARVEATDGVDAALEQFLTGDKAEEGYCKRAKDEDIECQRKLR

[2] = biological target: T2, TkLbpA2 (lipoate-binding protein LbpA2, TK90_0640) (Thioalkalivibrio sp. K90mix, UniProt D3SF88); assay: MALDI mass spectrometry of enzymatic lipoylation; conditions: covalent; lipoyl group attached to apo-protein by TkLplA with ATP, 37 °C
T2 construct: gene gcvH; Strep- or His-tagged (pET22b), made in E. coli as apoprotein
T2 sequence (D3SF88 1-145): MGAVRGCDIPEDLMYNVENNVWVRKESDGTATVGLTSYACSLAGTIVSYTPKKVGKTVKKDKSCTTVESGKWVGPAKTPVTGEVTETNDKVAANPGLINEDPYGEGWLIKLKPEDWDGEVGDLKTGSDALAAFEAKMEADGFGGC

[3] = biological target: T3, TkLplA (LplA-like lipoate-protein ligase, TK90_0642) (Thioalkalivibrio sp. K90mix, UniProt D3SF90); assay: TLC of lipoyl-AMP from [alpha-32P]ATP; MALDI of lipoylated acceptor; type: biochemical; conditions: Mg2+, 50 mM sodium phosphate pH 7.8, 37 °C (adenylation), acceptors TkLbpA1 and TkLbpA2
T3 construct: Strep- or His-tagged (pET22b), made in E. coli; single-domain ligase lacking the small domain
T3 sequence (D3SF90 1-363): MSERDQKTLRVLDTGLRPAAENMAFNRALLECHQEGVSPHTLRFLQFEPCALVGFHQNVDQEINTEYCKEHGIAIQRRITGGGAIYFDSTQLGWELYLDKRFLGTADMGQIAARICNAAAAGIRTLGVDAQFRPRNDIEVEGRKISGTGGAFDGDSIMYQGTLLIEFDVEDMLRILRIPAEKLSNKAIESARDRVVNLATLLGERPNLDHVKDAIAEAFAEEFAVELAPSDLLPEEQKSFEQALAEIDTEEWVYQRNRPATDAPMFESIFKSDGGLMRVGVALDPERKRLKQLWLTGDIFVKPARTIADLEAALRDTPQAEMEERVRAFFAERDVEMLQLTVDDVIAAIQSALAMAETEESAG

O=C(O)CCCC[C@@H]1CCSS1 (racemic) [lipoic acid, 1,2-dithiolane-3-pentanoic acid]
MALDI mass spectrometry of enzymatic lipoylation [1]: The overall lipoate ligase activity of LplA-like proteins was confirmed by mass spectrometry | MALDI mass spectrometry of enzymatic lipoylation [2]: The overall lipoate ligase activity of LplA-like proteins was confirmed by mass spectrometry | TLC of lipoyl-AMP from [alpha-32P]ATP; MALDI of lipoylated acceptor [3]: synthesis of both octanoyl-adenylate and lipoyl-adenylate intermediates were readily demonstrated
